Assays:
Conditions in all cases: 72 h
MDA-MB-468 = system: MDA-MB-468
Procedure, shortened: (§1)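 The plates used were 384-well plates holding compound at 5 concentrations in 10-fold steps across a compound-specific 10,000-fold range, into which breast cancer cell lines were seeded in 20 µl suspension. Following 72 h incubation, CellTox Green fluorescence was read at 485/520 nm, and CellTiter-Glo luminescence was read after 10 min at room temperature. Normalisation on each plate used 0.1 % DMSO and a positive kill control. Dose-response curves gave the EC50, which was censored at the top concentration.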

BT-474 = system: BT-474
Procedure, shortened: as §1

BT-549 = system: BT-549
Procedure, shortened: as §1

CAL-120 = system: CAL-120
Procedure, shortened: as §1

CAL-51 = system: CAL-51
Procedure, shortened: as §1

DU-4475 = system: DU-4475
Procedure, shortened: as §1

HCC1143 = system: HCC1143
Procedure, shortened: as §1

Hs578T = system: Hs578T
Procedure, shortened: as §1

MCF-10A = system: MCF-10A
Procedure, shortened: as §1

MDA-MB-231 = system: MDA-MB-231
Procedure, shortened: as §1

MDA-MB-436 = system: MDA-MB-436
Procedure, shortened: as §1

MFM-223 = system: MFM-223
Procedure, shortened: as §1

SK-BR-3 = system: SK-BR-3
Procedure, shortened: as §1

| Structure (SMILES) | EC50, CellTiter-Glo (MDA-MB-468) [nM] | EC50, CellTiter-Glo (BT-474) [nM] | EC50, CellTiter-Glo (BT-549) [nM] | EC50, CellTiter-Glo (HCC1143) [nM] | EC50, CellTiter-Glo (MDA-MB-231) [nM] | EC50, CellTiter-Glo (MDA-MB-436) [nM] | EC50, CellTiter-Glo (SK-BR-3) [nM] | EC50, CellTiter-Glo (CAL-120) [nM] | EC50, CellTiter-Glo (CAL-51) [nM] | EC50, CellTiter-Glo (DU-4475) [nM] | EC50, CellTiter-Glo (Hs578T) [nM] | EC50, CellTiter-Glo (MCF-10A) [nM] | EC50, CellTiter-Glo (MFM-223) [nM] |
| --- | --- | --- | --- | --- | --- | --- | --- | --- | --- | --- | --- | --- | --- |
| COc1ccc(-c2cc3c(C)nc(N)nc3n([C@H]3CC[C@H](OCCO)CC3)c2=O)cn1 | 208 | 162 | 186 | 258 | 189 | 181 | 23.8 | 123 | 105 | 756 | 238 | 122 | 261 |
| O=C1c2c(O)ccc(O)c2C(=O)c2c(NCCNCCO)ccc(NCCNCCO)c21 [Mitoxantrone] |  |  |  | 314 |  | 495 |  |  | 975 | 988 |  |  |  |
| CS(=O)(=O)N1CCN(Cc2cc3nc(-c4cccc5[nH]ncc45)nc(N4CCOCC4)c3s2)CC1 [Pictilisib] | 3040 | 1710 | 1410 | 2600 | 2960 | 6050 | 253 | 3150 | 1230 |  | 1890 | 397 | 1580 |
| Cc1nc(Nc2ncc(C(=O)Nc3c(C)cccc3Cl)s2)cc(N2CCN(CCO)CC2)n1 [Dasatinib] | 28.5 | 14 | 40.6 | 29.5 | 16.4 |  |  | 36.6 | 12.7 |  | 88.7 | 16.4 |  |
| O=S(=O)(c1cccc2cnccc12)N1CCCNCC1 [Fasudil] |  |  | 24400 |  |  |  |  |  |  | > 50000 | > 50000 |  |  |
| O=C(NC[C@H](O)CO)c1ccncc1Nc1ccc(I)cc1F [Pimasertib] |  | 456 |  |  | 737 | 8470 | > 10000 | 356 | 46.2 | 21.8 | 5910 | 12.9 | 1950 |
| CC[C@@]1(O)C(=O)OCc2c1cc1n(c2=O)Cc2cc3c(CN(C)C)c(O)ccc3nc2-1 [Topotecan] | 141 | 9160 | 1190 | 768 | 7050 | 378 | 574 | 4820 | 785 | 496 | 5130 | 5600 |  |
| Nc1cccc2c1CN(C1CCC(=O)NC1=O)C2=O (centres undefined) [Lenalidomide] |  |  |  |  |  |  |  | > 10000 |  |  |  |  |  |
| COc1nc(N)nc2c1ncn2[C@@H]1O[C@H](CO)[C@@H](O)[C@@H]1O [Nelarabine] |  | > 10000 |  |  |  | > 10000 |  |  |  |  |  |  |  |

The next lines start with results.

| EC50, CellTiter-Glo (MDA-MB-468) [nM] | EC50, CellTiter-Glo (BT-474) [nM] | EC50, CellTiter-Glo (BT-549) [nM] | EC50, CellTiter-Glo (HCC1143) [nM] | EC50, CellTiter-Glo (MDA-MB-231) [nM] | EC50, CellTiter-Glo (MDA-MB-436) [nM] | EC50, CellTiter-Glo (SK-BR-3) [nM] | Structure (SMILES) | EC50, CellTiter-Glo (CAL-120) [nM] | EC50, CellTiter-Glo (CAL-51) [nM] | EC50, CellTiter-Glo (DU-4475) [nM] | EC50, CellTiter-Glo (Hs578T) [nM] | EC50, CellTiter-Glo (MCF-10A) [nM] | EC50, CellTiter-Glo (MFM-223) [nM] |
| --- | --- | --- | --- | --- | --- | --- | --- | --- | --- | --- | --- | --- | --- |
| 2470 |  |  |  |  |  |  | CC(C)N(CCCNC(=O)Nc1ccc(C(C)(C)C)cc1)C[C@H]1O[C@@H](n2cc(Br)c3c(N)ncnc32)[C@H](O)[C@@H]1O [SGC0946] |  |  |  |  |  |  |
|  |  | > 1000 |  |  |  |  | COc1cc(CCc2cc(NC(=O)c3ccc(N4CC(C)NC(C)C4)cc3)n[nH]2)cc(OC)c1 (centres undefined) [AZD4547] | 68.8 |  |  |  | 91.2 | 5.91 |
| 894 | 375 | 412 | 591 | 580 | 501 | 130 | Cc1c(CN2CCN(C(=O)[C@H](C)O)CC2)sc2c(N3CCOCC3)nc(-c3cnc(N)nc3)nc12 [GDC-0980] | 618 | 423 | 2480 | 445 | 486 | 362 |

Reference: the supplement of paper PMC4862054
